Measurements from the NIST ThermoML archive (doi:10.1016/j.tca.2004.12.009).
± gives the expanded uncertainty stated by the source.

Experiments:
[1] = Molar enthalpy of transition or fusion; details: DSC
[2] = DTA

Molar enthalpy of transition or fusion ([1]; Crystal 1): 55.4 ± 1.8 kJ/mol
Molar enthalpy of transition or fusion ([1]; Metastable crystal): 51.2 ± 3.4 kJ/mol
Normal melting temperature ([2]; Crystal 1): 170.60 ± 0.6 °C
Normal melting temperature ([2]; Metastable crystal): 162.90 ± 0.9 °C
SMILES: NC(N)=Nc1nc(CSCC/C(N)=N/S(N)(=O)=O)cs1 [famotidine]
